Key:
AYE = test: MIC, microdilution broth method; format: cell-based, Acinetobacter baumannii
PA01 = test: MIC, microdilution broth method; format: cell-based, Pseudomonas aeruginosa
VRE12204 = test: MIC, microdilution broth method; format: cell-based, Enterococcus faecium; conditions: ESKAPE panel, Gram-positive; in µg/mL
MSSA9144 = test: MIC, microdilution broth method; format: cell-based, Staphylococcus aureus
extended bacterial panel = test: MIC against an extended bacterial panel (Table 15); format: cell-based
[1] = ESKAPE panel, Gram-negative, in µg/mL

Cc1cc(C)nc(N[C@@H]2CCN(c3c(F)cc4c(=O)c(C(=O)O)cn5c4c3OC[C@@H]5C)C2)n1 [KSN-BL7, (S)-10-((R)-3-((4,6-dimethylpyrimidin-2-yl)amino)pyrrolidin-1-yl)-9-fluoro-3-methyl-7-oxo-2,3-dihydro-7H-[1,4]oxazino[2,3,4-ij]quinoline-6-carboxylic acid]
0.5 µg/mL: MIC (extended bacterial panel; Enterococcus faecalis, CCUG47775, Enterococcus faecalis CCUG 47775, Van A) | MIC (extended bacterial panel; Staphylococcus aureus, BAA-1556 / MRSA / USA300, Staphylococcus aureus FPR3757, BAA-1556, USA300 MRSA) | MIC (extended bacterial panel; Staphylococcus aureus, MRSA / NRS 3 / VISA, Staphylococcus aureus NRS3, MRSA/VISA) | MIC (extended bacterial panel; Staphylococcus aureus, MRSA / NRS 271, Staphylococcus aureus E-MRSA 15, NRS271, MRSA LZD-NS) | MIC (extended bacterial panel; Staphylococcus aureus, MRSA / NRS 382 / USA100, Staphylococcus aureus NRS382, USA100 MRSA) | MIC (extended bacterial panel; Staphylococcus aureus, MRSA / NRS 385 / USA500, Staphylococcus aureus NRS385, USA500 MRSA) | MIC (extended bacterial panel; Staphylococcus aureus, MRSA / VISA, Staphylococcus aureus FDA-CDC AR-BANK# 0216)
1: MIC, VRE12204 (VRE12204)
0.125 µg/mL: MIC (extended bacterial panel; Enterococcus faecalis, ATCC51299, Enterococcus faecalis ATCC 51299, VanB) | MIC (extended bacterial panel; Enterococcus faecalis, ATCC700802, Enterococcus faecalis ATCC 700802, VanB)
≤0.0039: MIC, MSSA9144 (MSSA9144; ESKAPE panel, Gram-positive, in µg/mL)
8 µg/mL: MIC (AYE; Acinetobacter baumannii) | MIC (PA01; Pseudomonas aeruginosa)
16 µg/mL: MIC (extended bacterial panel; Staphylococcus aureus, MRSA / VISA, Staphylococcus aureus FDA-CDC AR-BANK# 0215)
1 µg/mL: MIC (extended bacterial panel; Enterococcus faecium, CCUG59167, Enterococcus faecium TUH44-29, CCUG 59167, Van A) | MIC (extended bacterial panel; Staphylococcus aureus, ATCC29213, Staphylococcus aureus ATCC 29213 with 50% human serum) | MIC (extended bacterial panel; Staphylococcus aureus, MRSA / NRS 17 / VISA, Staphylococcus aureus NRS17, MRSA/VISA) | MIC (extended bacterial panel; Staphylococcus aureus, MRSA / NRS 56 / VISA, Staphylococcus aureus NRS56, MRSA/VISA) | MIC (extended bacterial panel; Staphylococcus aureus, MRSA / NRS 71, Staphylococcus aureus NRS71, MRSA) | MIC (extended bacterial panel; Staphylococcus aureus, MRSA / NRS 119, Staphylococcus aureus NRS119, MRSA LZD-NS) | MIC (extended bacterial panel; Staphylococcus aureus, MRSA / NRS 383 / USA200, Staphylococcus aureus NRS383, USA200 MRSA TIG-NS) | MIC (extended bacterial panel; Staphylococcus aureus, MRSA / NRS 402 / VISA, Staphylococcus aureus NRS402, MRSA/VISA DAP-NS) | MIC (extended bacterial panel; Staphylococcus aureus, MRSA / VISA, Staphylococcus aureus FDA-CDC AR-BANK# 0217)
≤ 0.0039 µg/mL: MIC (MSSA9144; Staphylococcus aureus)
≤ 0.0312 µg/mL: MIC (extended bacterial panel; Staphylococcus aureus, ATCC10390, Staphylococcus aureus ATCC 10390) | MIC (extended bacterial panel; Staphylococcus aureus, ATCC 13709 / MRSA, Staphylococcus aureus ATCC 13709, MRSA) | MIC (extended bacterial panel; Staphylococcus aureus, ATCC19636, Staphylococcus aureus Smith, ATCC 19636) | MIC (extended bacterial panel; Staphylococcus aureus, ATCC27660, Staphylococcus aureus ATCC 27660) | MIC (extended bacterial panel; Staphylococcus aureus, ATCC29213, Staphylococcus aureus ATCC 29213) | MIC (extended bacterial panel; Staphylococcus aureus, ATCC 33591 / MRSA, Staphylococcus aureus ATCC 33591, MRSA) | MIC (extended bacterial panel; Staphylococcus aureus, ATCC 33592 / MRSA, Staphylococcus aureus ATCC 33592, MRSA) | MIC (extended bacterial panel; Staphylococcus aureus, ATCC33594, Staphylococcus aureus ATCC 33594) | MIC (extended bacterial panel; Staphylococcus aureus, ATCC49230, Staphylococcus aureus ATCC 49230) | MIC (extended bacterial panel; Staphylococcus aureus, BAA-1707 / MRSA / USA400, Staphylococcus aureus MW2, BAA-1707, USA400 MRSA) | MIC (extended bacterial panel; Staphylococcus aureus, BAA-1717 / MRSA / USA300, Staphylococcus aureus TCH1516, BAA-1717, USA300 MRSA) | MIC (extended bacterial panel; Staphylococcus aureus, MRSA / NRS 100, Staphylococcus aureus COL, NRS100, MRSA) | MIC (extended bacterial panel; Staphylococcus aureus, MRSA / NRS 123 / USA400, Staphylococcus aureus NRS123, USA400 MRSA) | MIC (extended bacterial panel; Staphylococcus aureus, MRSA / NRS 384 / USA300, Staphylococcus aureus NRS384, USA300 MRSA) | MIC (extended bacterial panel; Staphylococcus aureus, MRSA / NRS 387 / USA800, Staphylococcus aureus NRS387, USA800 MRSA) | MIC (extended bacterial panel; Staphylococcus aureus, MRSA / NRS 483, Staphylococcus aureus NRS483, USA1000 MRSA) | MIC (extended bacterial panel; Staphylococcus aureus, MRSA / NRS 484, Staphylococcus aureus NRS484, USA1100 MRSA)
8: MIC, AYE (AYE; [1]) | MIC, PA01 (PA01; [1])
0.25 µg/mL: MIC (extended bacterial panel; Enterococcus faecalis, ATCC29212, Enterococcus faecalis ATCC 29212) | MIC (extended bacterial panel; Enterococcus faecalis, ATCC51575, Enterococcus faecalis ATCC 51575, VanB) | MIC (extended bacterial panel; Enterococcus gallinarum, ATCC 49608 / GALLINARUM, Enterococcus gallinarum ATCC 49608, VanC) | MIC (extended bacterial panel; Staphylococcus aureus, MRSA / NRS 386 / USA700, Staphylococcus aureus NRS386, USA700 MRSA)
4 µg/mL: MIC (extended bacterial panel; Staphylococcus aureus, MRSA / NRS 22 / USA600 / VISA, Staphylococcus aureus NRS22, USA600 MRSA/VISA) | MIC (extended bacterial panel; Staphylococcus aureus, MRSA / NRS 127, Staphylococcus aureus NRS127, MRSA LZD-NS)
2 µg/mL: MIC (extended bacterial panel; Staphylococcus aureus, ATCC 700699 / MRSA / VISA, Staphylococcus aureus Mu50, ATCC 700699, MRSA/VISA) | MIC (extended bacterial panel; Staphylococcus aureus, MRSA / NRS 269, Staphylococcus aureus NRS269, MRSA TGC-NS)

Source: patent US11746116B2, “Antibiotic resistance breakers” (KING'S COLLEGE LONDON, priority 2017, dated 2023)
